Laboratory results from patent US20180243298A1, “TRPV3 MODULATORS” (AbbVie Inc., priority 2015, published 2018).

Biological target: T1, human TRPV3 (Homo sapiens, UniProt Q8NET8)
T1 construct: expressed in transfected cells; host or cells: HEK293
T1 sequence (Q8NET8 1-790): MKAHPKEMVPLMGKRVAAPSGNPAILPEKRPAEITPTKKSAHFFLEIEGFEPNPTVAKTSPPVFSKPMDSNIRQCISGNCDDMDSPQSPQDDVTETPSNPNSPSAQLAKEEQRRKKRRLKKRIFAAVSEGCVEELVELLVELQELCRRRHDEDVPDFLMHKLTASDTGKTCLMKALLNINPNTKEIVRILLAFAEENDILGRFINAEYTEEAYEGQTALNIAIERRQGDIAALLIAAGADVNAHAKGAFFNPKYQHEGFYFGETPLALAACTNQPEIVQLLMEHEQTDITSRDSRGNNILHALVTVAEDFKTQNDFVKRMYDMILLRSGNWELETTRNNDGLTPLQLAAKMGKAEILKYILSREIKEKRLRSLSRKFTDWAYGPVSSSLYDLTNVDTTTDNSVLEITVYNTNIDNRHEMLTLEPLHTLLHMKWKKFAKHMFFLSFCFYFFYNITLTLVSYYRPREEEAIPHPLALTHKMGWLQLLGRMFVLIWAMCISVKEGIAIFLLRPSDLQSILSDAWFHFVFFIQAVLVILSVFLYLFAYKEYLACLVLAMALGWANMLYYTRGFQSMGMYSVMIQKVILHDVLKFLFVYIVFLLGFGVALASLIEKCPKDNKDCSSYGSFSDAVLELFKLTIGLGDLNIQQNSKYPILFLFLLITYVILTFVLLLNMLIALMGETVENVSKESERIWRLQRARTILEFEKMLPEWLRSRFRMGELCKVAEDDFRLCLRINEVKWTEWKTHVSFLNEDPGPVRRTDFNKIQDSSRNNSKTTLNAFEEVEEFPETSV
Experiment: Calcium flux assay (FLIPR TETRA), recombinant HEK293 cells expressing TRPV3, 2-APB response
Format: cell-based
Conditions: 2-APB at its EC80
Description: (i) In Vitro Methods-Calcium Flux Assays:
Experiments were conducted using the FLIPR TETRA®. On the day prior to the experiment, recombinant HEK293 cells that stably express human and mouse TRPV3 were removed from tissue culture flasks and plated in growth medium at 20,000 cells/well into black-walled clear-bottom 384-well BIOCOAT™ poly-D-lysine assay plates (BD Biosciences, Bedford, Mass.) using a MULTIDROP® dispenser (ThermoScientific, Waltham, Mass.). On the day of the experiment, growth medium was removed, and the no-wash FLIPR® Calcium-4 dye (λEX=470-495 nm, λEM=515-575 nm; Molecular Devices, Sunnyvale, Calif.) was added to each well using the MULTIDROP® dispenser. Cells were incubated for 90-120 minutes in the dark. The compounds were dissolved in DMSO to prepare a 10 mM stock solution. The intensity of the fluorescence was captured and digitally transferred to an interfaced PC. The peak increase in fluorescence over baseline, measured in relative fluorescence units, was calculated and expressed as the percentage of the maximal 2-APB (2-aminoethoxyldiphenyl borate) response (in the absence of compound). The concentration of 2-APB corresponds to its EC80.

IC50 [µM] | Compound
0.1 to 0.5 | COc1ncnc(OC)c1C(=O)Nc1nc(-c2ccc(OC(F)(F)F)cc2)c(C(C)O)s1 (centres unmarked) [Example 82, N-{5-(1-hydroxyethyl)-4-[4-(trifluoromethoxy)phenyl]-1,3-thiazol-2-yl}-4,6-dimethoxypyrimidine-5-carboxamide]
0.05 to 0.1 | COc1ncnc(OC)c1C(=O)Nc1nc(-c2ccc(C(F)(F)F)cn2)c(C(C)(C)O)s1 [Example 85, N-{5-(2-hydroxypropan-2-yl)-4-[5-(trifluoromethyl)pyridin-2-yl]-1,3-thiazol-2-yl}-4,6-dimethoxypyrimidine-5-carboxamide]
< 0.05 | COCc1sc(NC(=O)c2c(OC)ncnc2OC)nc1-c1ccc(C(F)(F)F)cn1 [Example 86, 4,6-dimethoxy-N-{5-(methoxymethyl)-4-[5-(trifluoromethyl)pyridin-2-yl]-1,3-thiazol-2-yl}pyrimidine-5-carboxamide]
0.05 to 0.1 | COc1ncnc(OC)c1C(=O)Nc1nc(-c2ccc(C(F)(F)F)cn2)c(C(C)=O)s1 [Example 87, N-{5-acetyl-4-[5-(trifluoromethyl)pyridin-2-yl]-1,3-thiazol-2-yl}-4,6-dimethoxypyrimidine-5-carboxamide]
0.05 to 0.1 | COc1ncnc(OC)c1C(=O)Nc1nc(-c2ccc(C(F)(F)F)cn2)c(/C(C)=N/O)s1 [Example 88, N-{5-[(1E)-N-hydroxyethanimidoyl]-4-[5-(trifluoromethyl)pyridin-2-yl]-1,3-thiazol-2-yl}-4,6-dimethoxypyrimidine-5-carboxamide]
< 0.05 | CO/N=C(\C)c1sc(NC(=O)c2c(OC)ncnc2OC)nc1-c1ccc(C(F)(F)F)cn1 [Example 89, 4,6-dimethoxy-N-{5-[(1E)-N-methoxyethanimidoyl]-4-[5-(trifluoromethyl)pyridin-2-yl]-1,3-thiazol-2-yl}pyrimidine-5-carboxamide]
0.05 to 0.1 | COc1ncnc(OC)c1C(=O)Nc1nc(-c2ccc(C(F)(F)F)cn2)c(C2(C)OCCO2)s1 [Example 90, 4,6-dimethoxy-N-{5-(2-methyl-1,3-dioxolan-2-yl)-4-[5-(trifluoromethyl)pyridin-2-yl]-1,3-thiazol-2-yl}pyrimidine-5-carboxamide]
0.5 to 1 | COc1ncnc(OC)c1C(=O)Nc1nc(-c2ccc(F)cn2)cs1 [Example 91, N-[4-(5-fluoropyridin-2-yl)-1,3-thiazol-2-yl]-4,6-dimethoxypyrimidine-5-carboxamide]
< 0.05 | COc1ncnc(OC)c1C(=O)Nc1nc(-c2ccc(OC(F)(F)F)cn2)cs1 [Example 92, 4,6-dimethoxy-N-{4-[5-(trifluoromethoxy)pyridin-2-yl]-1,3-thiazol-2-yl}pyrimidine-5-carboxamide]
0.1 to 0.5 | COc1ncnc(OC)c1C(=O)Nc1nc(-c2ccc(OC(F)(F)F)cc2)cs1 [Example 93, 4,6-dimethoxy-N-{4-[4-(trifluoromethoxy)phenyl]-1,3-thiazol-2-yl}pyrimidine-5-carboxamide]
0.1 to 0.5 | COc1ncnc(OC)c1C(=O)Nc1nc(-c2ccc(C(F)F)cn2)cs1 [Example 94, N-{4-[5-(difluoromethyl)pyridin-2-yl]-1,3-thiazol-2-yl}-4,6-dimethoxypyrimidine-5-carboxamide]
< 0.05 | COc1ncnc(OC)c1C(=O)Nc1nc(-c2ccc(C(F)(F)F)cn2)c(C)s1 [Example 95, 4,6-dimethoxy-N-{5-methyl-4-[5-(trifluoromethyl)pyridin-2-yl]-1,3-thiazol-2-yl}pyrimidine-5-carboxamide]
0.1 to 0.5 | COc1ncnc(OC)c1C(=O)Nc1nc(-c2ccc(C(F)(F)F)cn2)c(CCCO)s1 [Example 96, N-{5-(3-hydroxypropyl)-4-[5-(trifluoromethyl)pyridin-2-yl]-1,3-thiazol-2-yl}-4,6-dimethoxypyrimidine-5-carboxamide]
0.05 to 0.1 | COc1ncnc(OC)c1C(=O)Nc1nc(-c2ccc(C(F)(F)F)cn2)c(C#N)s1 [Example 97, N-{5-cyano-4-[5-(trifluoromethyl)pyridin-2-yl]-1,3-thiazol-2-yl}-4,6-dimethoxypyrimidine-5-carboxamide]

Continued, compound first:

Compound | IC50 [µM]
COc1ncnc(OC)c1C(=O)Nc1nc(C(F)(F)F)c(Cl)s1 [Example 63, N-[5-chloro-4-(trifluoromethyl)-1,3-thiazol-2-yl]-4,6-dimethoxypyrimidine-5-carboxamide] | < 0.05
COc1ncnc(OC)c1C(=O)Nc1nc(C(F)(F)F)c(-c2cn(C)nc2C)s1 [Example 67, N-[5-(1,3-dimethyl-1H-pyrazol-4-yl)-4-(trifluoromethyl)-1,3-thiazol-2-yl]-4,6-dimethoxypyrimidine-5-carboxamide] | 0.05 to 0.1
CCc1sc(NC(=O)c2c(OC)nc(C)nc2OC)nc1C(F)(F)F [Example 69, N-[5-ethyl-4-(trifluoromethyl)-1,3-thiazol-2-yl]-4,6-dimethoxy-2-methylpyrimidine-5-carboxamide] | 0.05 to 0.1
CCOc1ncnc(OC)c1C(=O)Nc1nc(C(F)(F)F)c(CC)s1 [Example 70, 4-ethoxy-N-[5-ethyl-4-(trifluoromethyl)-1,3-thiazol-2-yl]-6-methoxypyrimidine-5-carboxamide] | < 0.05
CCOc1ncnc(OCC)c1C(=O)Nc1nc(C(F)(F)F)c(CC)s1 [Example 71, 4,6-diethoxy-N-[5-ethyl-4-(trifluoromethyl)-1,3-thiazol-2-yl]pyrimidine-5-carboxamide] | < 0.05
COc1ncnc(OC)c1C(=O)Nc1nc(-c2ccc(C(F)(F)F)cn2)cs1 [Example 73, 4,6-dimethoxy-N-{4-[5-(trifluoromethyl)pyridin-2-yl]-1,3-thiazol-2-yl}pyrimidine-5-carboxamide] | < 0.05
CCOC(=O)c1sc(NC(=O)c2c(OC)ncnc2OC)nc1-c1ccc(C(F)(F)F)cn1 [Example 75, ethyl 2-{[(4,6-dimethoxypyrimidin-5-yl)carbonyl]amino}-4-[5-(trifluoromethyl)pyridin-2-yl]-1,3-thiazole-5-carboxylate] | 0.1 to 0.5
COc1ncnc(OC)c1C(=O)Nc1nc(-c2ccc(C(F)(F)F)cn2)c(C=O)s1 [Example 76, N-{5-formyl-4-[5-(trifluoromethyl)pyridin-2-yl]-1,3-thiazol-2-yl}-4,6-dimethoxypyrimidine-5-carboxamide] | 0.1 to 0.5
COc1ncnc(OC)c1C(=O)Nc1nc(-c2ccc(C(F)(F)F)cn2)c(CN2CCOCC2)s1 [Example 77, 4,6-dimethoxy-N-{5-(morpholin-4-ylmethyl)-4-[5-(trifluoromethyl)pyridin-2-yl]-1,3-thiazol-2-yl}pyrimidine-5-carboxamide] | < 0.05
COc1ncnc(OC)c1C(=O)Nc1nc(-c2ccc(C(F)(F)F)cn2)c(CN2CCCC2)s1 [Example 78, 4,6-dimethoxy-N-{5-(pyrrolidin-1-ylmethyl)-4-[5-(trifluoromethyl)pyridin-2-yl]-1,3-thiazol-2-yl}pyrimidine-5-carboxamide] | 0.1 to 0.5
COc1ncnc(O)c1C(=O)Nc1nc(-c2ccc(C(F)(F)F)cn2)c(C(=O)N(C)C)s1 [Example 79, N-{5-(dimethylcarbamoyl)-4-[5-(trifluoromethyl)pyridin-2-yl]-1,3-thiazol-2-yl}-4-hydroxy-6-methoxypyrimidine-5-carboxamide] | > 1
COc1ncnc(OC)c1C(=O)Nc1nc(-c2ccc(C(F)(F)F)cn2)c(CO)s1 [Example 80, N-{5-(hydroxymethyl)-4-[5-(trifluoromethyl)pyridin-2-yl]-1,3-thiazol-2-yl}-4,6-dimethoxypyrimidine-5-carboxamide] | 0.05 to 0.1
